Data: the supplement of paper PMC4862054
“And” between values parts separate entries of the source, which are not always exact repeats. Equal values may be shown once.

Legend:
Conditions in all cases: incubation time: 72 h
[1] = system: BT-474; assay: normalised response (% of control), CellTiter-Glo; higher = more viable cells (100 = DMSO, 0 = benzethonium chloride kill control)
Outline: (§1)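 Each entry is the normalised signal at a single concentration within a series. The series comprised 5 concentrations in 10-fold steps over a compound-specific 10,000-fold range, placed in 384-well plates into which breast cancer cell lines were seeded as 20 µl suspension and incubated 72 h. CellTox Green (485/520 nm) fluorescence and then CellTiter-Glo luminescence were read, with signals normalised per plate to 0.1 % DMSO (100) and a positive kill control (0).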

[2] = system: BT-549; assay: as above
Outline: as §1

[3] = system: CAL-120; assay: as above
Outline: as §1

[4] = system: CAL-148; assay: as above
Outline: as §1

[5] = system: CAL-51; assay: as above
Outline: as §1

[6] = system: CAL-85-1; assay: as above
Outline: as §1

[7] = system: DU-4475; assay: as above
Outline: as §1

[8] = system: HCC1143; assay: as above
Outline: as §1

[9] = system: HCC1599; assay: as above
Outline: as §1

[10] = system: HCC1937; assay: as above
Outline: as §1

[11] = system: HDQ-P1; assay: as above
Outline: as §1

[12] = system: Hs578T; assay: as above
Outline: as §1

[13] = system: MCF-10A; assay: as above
Outline: as §1

[14] = system: MDA-MB-231; assay: as above
Outline: as §1

[15] = system: MDA-MB-436; assay: as above
Outline: as §1

[16] = system: MDA-MB-453; assay: as above
Outline: as §1

[17] = system: MDA-MB-468; assay: as above
Outline: as §1

[18] = system: MFM-223; assay: as above
Outline: as §1

[19] = system: SK-BR-3; assay: as above
Outline: as §1

[20] = system: BT-474; assay: normalised viability (% of control), CellTiter-Blue; higher = more viable cells (100 = DMSO, 0 = benzethonium chloride kill control)
Method: (§2)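 DSRT, CellTiter-Blue viability, 72 h incubation. Signal is normalised to DMSO and benzethonium chloride controls. Value is the normalised response at dose 1.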

[21] = system: BT-549; assay: as above
Method: as §2

[22] = system: CAL-120; assay: as above
Method: as §2

[23] = system: CAL-148; assay: as above
Method: as §2

[24] = system: CAL-51; assay: as above
Method: as §2

[25] = system: CAL-85-1; assay: as above
Method: as §2

[26] = system: DU-4475; assay: as above
Method: as §2

[27] = system: HCC1143; assay: as above
Method: as §2

[28] = system: HCC1599; assay: as above
Method: as §2

[29] = system: HCC1937; assay: as above
Method: as §2

[30] = system: HDQ-P1; assay: as above
Method: as §2

[31] = system: Hs578T; assay: as above
Method: as §2

[32] = system: MDA-MB-231; assay: as above
Method: as §2

[33] = system: MDA-MB-436; assay: as above
Method: as §2

[34] = system: MDA-MB-453; assay: as above
Method: as §2

[35] = system: MDA-MB-468; assay: as above
Method: as §2

[36] = system: MFM-223; assay: as above
Method: as §2

[37] = system: SK-BR-3; assay: as above
Method: as §2

| SMILES | normalised response [1] [%] | normalised response [2] [%] | normalised response [3] [%] | normalised response [4] [%] | normalised response [5] [%] | normalised response [6] [%] | normalised response [7] [%] | normalised response [8] [%] | normalised response [9] [%] | normalised response [10] [%] | normalised response [11] [%] | normalised response [12] [%] | normalised response [13] [%] | normalised response [14] [%] | normalised response [15] [%] | normalised response [16] [%] | normalised response [17] [%] | normalised response [18] [%] | normalised response [19] [%] | normalised viability [20] | normalised viability [21] | normalised viability [22] | normalised viability [23] | normalised viability [24] | normalised viability [25] | normalised viability [26] | normalised viability [27] | normalised viability [28] | normalised viability [29] | normalised viability [30] [%] | normalised viability [31] | normalised viability [32] | normalised viability [33] | normalised viability [34] | normalised viability [35] | normalised viability [36] | normalised viability [37] |
| --- | --- | --- | --- | --- | --- | --- | --- | --- | --- | --- | --- | --- | --- | --- | --- | --- | --- | --- | --- | --- | --- | --- | --- | --- | --- | --- | --- | --- | --- | --- | --- | --- | --- | --- | --- | --- | --- |
| Nc1nc2[nH]cnc2c(=S)[nH]1 [Thioguanine] (1 nM) | 98.1 | 104 | 93.3 | 95.3 | 77.6 | 92.8 | 96.7 | 98.9 | 105 | 92.8 | 98.4 | 101 | 101 | 96.2 | 94 | 98.1 | 94.5 | 94.1 | 94.2 | 100% | 98.8% | 97.5% | 107% | 104% | 98.1% | 105% | 95.3% | 110% | 90.2% | 111 | 136% | 92.8% | 101% | 104% | 104% | 98.4% | 99.9% |
| O=NN(CCCl)C(=O)NCCCl [Carmustine] (1 nM) | 97 | 97.1 | 100 | 89.3 | 87.1 | 94.4 | 103 | 97.8 | 103 | 97.6 | 99.3 | 100 | 87.3 | 98.2 | 80 | 109 | 98.1 | 94.2 | 90.5 | 87.5% | 103% | 94.2% | 115% | 107% | 87.8% | 120% | 90.5% | 97% | 88.8% | 111 | 134% | 133% | 75.7% | 108% | 106% | 93.5% | 99.8% |
| CC(=O)O[C@@]12CO[C@@H]1C[C@H](O)[C@@]1(C)C(=O)[C@H](O)C3=C(C)[C@@H](OC(=O)[C@H](O)[C@@H](NC(=O)OC(C)(C)C)c4ccccc4)C[C@@](O)([C@@H](OC(=O)c4ccccc4)[C@H]21)C3(C)C [Docetaxel] (0.1 nM) | 98.8 | 104 | 104 | 90.8 | 94.5 | 102 | 96.7 | 96.3 | 101 | 94.5 | 96.2 | 93.2 | 98 | 102 | 105 | 99.7 | 106 | 96.9 | 99.3 | 104% and 90.1% | 92.9% and 96.3% | 96.5% and 94.7% | 107% and 110% | 104% and 92.1% | 101% and 106% | 109% and 110% | 107% and 111% | 119% and 123% | 81.5% and 83.6% |  | 99.7% and 96.5% | 110% and 94.6% | 91.9% and 106% | 118% and 98.6% | 96.8% and 100% | 100% and 102% | 103% and 105% |
| CC[C@@H]1C(=O)OC[C@@H]1Cc1cncn1C [Pilocarpine] (4 nM) | 91.7 | 101 | 94 | 96.4 | 123 | 95 | 100 | 93.7 | 76.7 | 92.8 | 95.7 | 103 | 94.6 | 96.1 | 79.3 | 111 | 98.4 | 101 | 99.2 | 74.9% | 103% | 100% | 108% | 108% | 96.3% | 99.7% | 97.6% | 85.4% | 94.3% | 133 | 92.9% | 97.1% | 113% | 99.1% | 104% | 88.8% | 91.8% |
